Six molecules from patent US8771953B2, “Evaluation of the potential risk of drug induced mood disturbance and suicide: use of a dedicated platform” (Biocortech, priority 2008, dated 2014) can be followed below.

One experiment has as its system 5-HT2cR mRNA. The experiment can be described thus: Editing profile of 5-HT2cR mRNA isoforms by CE-SSCP (nested PCR) in SH-SY5Y cells; enzyme activity indexes worked out from the profile. The class given is cell-based, human. The conditions noted are these: Homo sapiens, SH-SY5Y.
Another experiment has as its system ADAR1a mRNA. The experiment in a line: Q-PCR of ADAR1a mRNA expression in SH-SY5Y cells. The class given is cell-based. The conditions noted are these: Homo sapiens, 10 micromolar, 24 hours, read-out: QPCR: RNA expresion (% of variation) ADAR1a. The source says:
ADAR1a RNA Expression in SH-SY5Y cells (Q-PCR, Applied TaqMan probes ref: Hs 01020780_m1).
(§1) The SH-SY5Y Human neuroblastoma cell line was purchased from ECACC (EC94030304 from the European Collection of Cell Cultures (ECACC)). The cell line SH-SY5Y is a thrice-cloned neuroblastoma, originally from SK-N-SH and first reported in 1978. A neuroblast-like subclone of SK-N-SH, named SH-SY, was subcloned as SH-SY5, which was subcloned again as SH-SY5Y (Biedler J L et al. Cancer Res. 1978; 38:3751-7). Cells were cultured in high glucose D-MEM medium (Sigma, ref D6546) supplemented with 10% dialysed FCS (PAA, ref. A15-507, lot A50708-0050), 2 mM Glutamine (Sigma, G7513) and a 1× mix of Antibiotic-Antimycotic Stabilized (Sigma, ref. A5955) at 37° C. under a humidified atmosphere of 5% CO2. The day preceeding drug or hIFNα treatment, SH-SY5Y cells were plated in 6-well plates at a density of 10^6 cells/well. One 6-well plate was used per experimental condition (concentration or treatment duration). The day after plating, culture medium was removed and cells were incubated for 24 hours with a 10 μM solution of the compound to be tested molecules or a 1000 IU/ml solution of hIFNα (PBL biomedical laboratories). For hIFNα dose-response experiment cells were incubated with 1, 10, 100, and 1000 IU/ml of hIFNα solutions. For hIFNα time-course experiment cells were treated for 24, 48, or 72 hours with a 1000 IU/ml solution of hIFNα. After the different treatments, cells were directly lysed in RLT lysis buffer and total RNA purified according to manufacturer's protocol (Qiagen, RNeasy Plus mini kit, ref. 74134). Total RNA was then reverse transcribed with Thermoscript RT-PCR system Plus Taq (Invitrogen, 11146-032) and the resulting cDNA used for CE-SSCP and quantitative real-time PCR.
(§2) In order to quantify levels of 5-HT2CR, ADAR1 and ADAR2 mRNA expression in SH-SY5Y cells or in prefrontal cortex, total blood and skin of Balb/cJ mice, first-strand cDNA was synthesized by reverse transcription and subjected to TaqMan quantitative real-time PCR analysis (Applied Biosystems). All probes and primers used for the quantitative PCRs were from Applied Bio systems (Gene Expression Assays, Assay-On-Demand) (see Table 1, Applied Biosystems primers and probes references): […]
(§3) Human GAPDH (product no. 4326317E; Applied Biosystems) or mouse GAPDH (product no. 4352339E; Applied Biosystems) were included in each multiplex PCR as an internal control. Real-time PCR and subsequent analysis were performed with a 48-well block StepOne RT PCR system (Applied Biosystems). Quantification of target gene expression in all samples was normalized to GAPDH expression by the equation Ct (target)−Ct (GAPDH)=ΔCt, where Ct is the threshold cycle number. The mean ΔCt value of samples from untreated mice or cells was determined and used as a reference point for the samples corresponding to treated animals or cells. Differences between untreated and treated animals or cells, including individual variation were calculated by the equation (ΔCt (individual treated samples)−ΔCt (mean of untreated samples)=ΔΔCt). Changes in target gene expression (n-fold) in each sample were calculated by 2^−ΔΔCt, from which the means and standard deviations (SD) were derived.
(§4) The SH-SY5Y Human neuroblastoma cell line was purchased from ECACC. Cells were cultured in high glucose D-MEM medium (Sigma, ref. D6546) supplemented with 10% dialysed FCS (PAA, ref. A15-507, lot A50708-0050), 2 mM Glutamine (Sigma, ref. G7513) and a 1× mix of Antibiotic-Antimycotic Stabilized (Sigma, ref. A5955) at 37° C. under a humidified atmosphere of 5% CO2. The day preceeding hIFNα or drug treatment, SH-SY5Y cells were plated in 6-well plates (Corning, Multiwell Plate, 6 well, Corning CellBIND Surface, ref 3335) at a density of 5; 7 or 9·10^6 cells/well for a 72-, 48- or 24-hour treatment respectively. Six or eight wells of 6-well plates were used per experimental condition (control, concentration or treatment duration).

For a further experiment, the system named is ADAR1b mRNA. The experiment in a line: Q-PCR of ADAR1b mRNA expression in SH-SY5Y cells. The experiment is classed as cell-based. The following applies: Homo sapiens, 10 micromolar, 24 hours, read-out: QPCR: RNA expresion (% of variation) ADAR1b. On the procedure:
as §1, §2, §3, §4

A further experiment concerns ADAR2 mRNA. The experiment can be described thus: Q-PCR of ADAR2 mRNA expression in SH-SY5Y cells. The experiment is classed as cell-based. The conditions noted are these: Homo sapiens, 10 micromolar, 24 hours, read-out: QPCR: RNA expresion (% of variation) ADAR2. On the procedure: as §1, §2, §3, §4
Setting [1] is: 10 micromolar, 24 hours, read-out: ENZYME ACTIVIY INDEX (% of variation) ADAR1.
Setting [2] is: 10 micromolar, 24 hours, read-out: ENZYME ACTIVIY INDEX (% of variation) ADAR1 + 2.
[3] abbreviates: 10 micromolar, 24 hours, read-out: ENZYME ACTIVIY INDEX (% of variation) ADAR2.
Where [4] appears, read: 10 micromolar, 24 hours, read-out: ENZYME ACTIVIY INDEX (% of variation) ADARI.
The mark [5] stands for this setting: 10 micromolar, 24 hours, read-out: ENZYME ACTIVIY INDEX (% of variation) ADARII.
Setting [6] is: 10 micromolar, 24 hours, read-out: ENZYME ACTIVIY INDEX (% of variation) NE.

Read-outs that look alike come from different tables or passages of the source.

Regarding `NS(=O)(=O)Cc1noc2ccccc12` [Zonisamide], the activation at 10 µM with 5-HT2cR mRNA (setting [1]) was 11.9%; with 5-HT2cR mRNA (setting [2]), 9.7%; with 5-HT2cR mRNA (setting [3]), -7.8%; in the experiment with 5-HT2cR mRNA (setting [4]), 11.5%; in the experiment with 5-HT2cR mRNA (setting [5]) it was 6.3%; in the experiment on 5-HT2cR mRNA (setting [6]), -10.5%. In the experiment with ADAR1a mRNA, the % change in ADAR1a mRNA expression at 10 µM was -24%. Further, the percent change in mRNA expression at 10 µM in the experiment on ADAR1b mRNA is -19%. Further, the percent change in ADAR2 mRNA expression at 10 µM in the experiment with ADAR2 mRNA is -23%.
Regarding `NC(=O)OCC(COC(N)=O)c1ccccc1` [Felbamate], the activation at 10 µM in the experiment with 5-HT2cR mRNA (setting [1]) was 6.3%; in the experiment with 5-HT2cR mRNA (setting [2]), -13.9%; in the experiment with 5-HT2cR mRNA (setting [3]) it was -24.6%; in the experiment on 5-HT2cR mRNA (setting [4]), 2.4%; in the experiment with 5-HT2cR mRNA (setting [5]) it was -16%; in the experiment with 5-HT2cR mRNA (setting [6]) it was -1.2%. Besides, the % change in ADAR1a mRNA expression at 10 µM with ADAR1a mRNA is -13%. Also, the percent change in mRNA expression at 10 µM with ADAR1b mRNA was -1%. The percent change in ADAR2 mRNA expression at 10 µM in the experiment on ADAR2 mRNA was 1%.
For the molecule `NC(=O)N1c2ccccc2C=Cc2ccccc21` [Carbamazepine], the activation at 10 µM in the experiment with 5-HT2cR mRNA (setting [1]) was -3%; in the experiment with 5-HT2cR mRNA (setting [2]), 38.8%; with 5-HT2cR mRNA (setting [3]), 26%; with 5-HT2cR mRNA (setting [4]), 3%; in the experiment on 5-HT2cR mRNA (setting [5]), 36.4%; in the experiment on 5-HT2cR mRNA (setting [6]) it was -3.8%. In the experiment with ADAR1a mRNA, the % change in ADAR1a mRNA expression at 10 µM turned out to be 52%. Also, the percent change in mRNA expression at 10 µM in the experiment with ADAR1b mRNA was -62%. Moreover, in the experiment on ADAR2 mRNA, the percent change in ADAR2 mRNA expression at 10 µM was -42%.
As to `CNCCCN1c2ccccc2CCc2ccccc21` [Desipramine], the activation at 10 µM in the experiment with 5-HT2cR mRNA (24 h, read-out: ENZYME ACTIVIY INDEX (% of variation) ADAR1) was -8.6%; in the experiment on 5-HT2cR mRNA (24 h, read-out: ENZYME ACTIVIY INDEX (% of variation) ADAR1 + 2), 5.7%; in the experiment with 5-HT2cR mRNA (24 h, read-out: ENZYME ACTIVIY INDEX (% of variation) ADAR2) it was 15.5%; in the experiment with 5-HT2cR mRNA (24 h, read-out: ENZYME ACTIVIY INDEX (% of variation) ADARI), -6.6%; in the experiment on 5-HT2cR mRNA (24 h, read-out: ENZYME ACTIVIY INDEX (% of variation) ADARII), 7.5%; in the experiment with 5-HT2cR mRNA (24 h, read-out: ENZYME ACTIVIY INDEX (% of variation) NE) it was 5.9%. Moreover, the % change in ADAR1a mRNA expression at 10 µM with ADAR1a mRNA turned out to be 29%. Moreover, in the experiment on ADAR1b mRNA, the percent change in mRNA expression at 10 µM is -38%. Further, the percent change in ADAR2 mRNA expression at 10 µM in the experiment with ADAR2 mRNA is -12%.
On to `CN(C)CCCC1(c2ccc(F)cc2)OCc2cc(C#N)ccc21` (stereo not drawn) [Citalopram], for which the activation at 10 µM with 5-HT2cR mRNA (setting [1]) was -5.7%; in the experiment with 5-HT2cR mRNA (setting [2]) it was 70.2%; in the experiment with 5-HT2cR mRNA (setting [3]), 70.1%; in the experiment with 5-HT2cR mRNA (setting [4]), 5.3%; in the experiment on 5-HT2cR mRNA (setting [5]), 70.2%; in the experiment with 5-HT2cR mRNA (setting [6]), -7.4%. Moreover, in the experiment with ADAR1a mRNA, the % change in ADAR1a mRNA expression at 10 µM is -18%. For the same molecule, in the experiment on ADAR1b mRNA, the percent change in mRNA expression at 10 µM was -2%. The percent change in ADAR2 mRNA expression at 10 µM with ADAR2 mRNA worked out at 64%.
In the case of `Nc1nnc(-c2cccc(Cl)c2Cl)c(N)n1` [Lamotrigine], the activation at 10 µM in the experiment with 5-HT2cR mRNA (setting [1]) was 5.9%; in the experiment with 5-HT2cR mRNA (setting [2]) it was -24.6%; with 5-HT2cR mRNA (setting [3]), -23%; in the experiment on 5-HT2cR mRNA (setting [4]) it was 0.1%; in the experiment on 5-HT2cR mRNA (setting [5]) it was -24.3%; in the experiment on 5-HT2cR mRNA (setting [6]) it was 0.9%. In addition, the % change in ADAR1a mRNA expression at 10 µM in the experiment with ADAR1a mRNA is -26%. The percent change in mRNA expression at 10 µM in the experiment on ADAR1b mRNA is -26%. Moreover, the percent change in ADAR2 mRNA expression at 10 µM in the experiment on ADAR2 mRNA was -32%.
